What was measured:
Format in all cases: cell-based
caspase-11 = experiment: LPS-induced caspase-11 expression in BalbC/3T3 cells, Western blot
Experimental: FIG. 27 is a graph of the inhibition of caspase-11 induction by synthetic wedelolactone. BalbC/3T3 cells were treated with 0, 30 μM, 40 μM, 60μM, 80 μM or 100 μM of wedelolactone for 1 hour and LPS for an additional 6 hours. The induction of caspase-11 was measured by Western blot analysis and quantification.
To identify modulators of caspase-11 expression or activity, a tissue culture model of caspase-11 induction was generated. In this model, BalbC/3T3 cells normally express undetectable levels of caspase-11 biological activity, as measured by Western blot analysis. […] A caspase-11 modulatory compound may be administered to the cells prior to administration of LPS, and then caspase-11 biological activity may be measured at a specific time after addition of LPS to the culture media of the cells. A caspase-11 modulatory compound that suppresses the LPS-induced biological activity of caspase-11 is considered to be a compound that modulates not only caspase-11 expression, but also cell death or inflammation.
BalbC/3T3 cells were next preincubated with an ethanol extract of the plant Eclipta prostrata L. (454 g of Eclipta prostrata L. was extracted into 8 ml of ethanol; 5 μl of extract/ml of tissue culture media was applied to the cell culture) for 6 hours, followed by treatment with LPS for 6 hours, as described above. The level of caspase-11 protein expression was then measured.

NF-κB = experiment: NF-κB-luciferase reporter in LPS-treated BalbC/3T3 cells
Experimental: FIG. 5A is a graph of the effect of the active Eclipta prostrata L. fraction on induction of NF-κB and caspase-11. BalbC/3T3 cells were transfected with an NF-κB luciferase report construct and treated with the ethylacetate fraction of Eclipta prostrata L. ethylacetate extract (EA) or 11,12-dihydroxy coumestan (10 mg/ml) for 1 hour and then treated with 2 μg/ml LPS for 9 hours. Luciferase activity was then determined.
FIG. 28 is a graph of the inhibition of NF-κB activation by synthetic wedelolactone. BalbC/3T3 cells were transfected with NF-κB luciferase construct. Twelve hours later, cells were treated with 0, 20 μM, 40 μM, 60 μM, or 100 μM of wedelolactone for 1 hour and then 2 μg/ml LPS for additional 6 hours. Luciferase activity was then quantified.
Since caspase-11 is induced through the NF-κB pathway, wedelolactone (FIG. 3) may inhibit the activity of NF-κB. To examine this possibility, BalbC/3T3 cells were transfected with an NF-κB-luciferase reporter plasmid (containing an NF-κB response element).
The ability of synthetic wedelolactone to inhibit the activation of NF-κB induced by LPS was also assessed. BalbC/3T3 cells were transfected with a plasmid encoding an NF-κB-luciferase reporter protein in the presence of varying concentrations of wedelolactone. […] These experiments provided the final confirmation that wedelolactone is an inhibitor of NF-κB activation and caspase-11 induction. Thus, wedelolactone can be used to treat cell death diseases and inflammation.

NF-κB p105 mRNA = experiment: Atlas DNA array mRNA expression in LPS-treated BalbC/3T3 cells; conditions: 100 μM 1 h, then LPS 6 h, versus LPS only
Text: (§1) One hundred μM wedelolactone reduced the expression of NF-κB p105 mRNA in LPS-treated BalbC/3T3 cells at the ratio of 1 to 8.

STAT1 = experiment: as above; conditions: 100 μM 1 h, then LPS 6 h
Text: as §1

STAT3 = experiment: as above; conditions: 100 μM 1 h, then LPS 6 h
Text: as §1

| SMILES | Inhibition of caspase-11 expression (caspase-11; general statement in Example 3) | Inhibition of LPS induction of NF-κB luciferase activity (FIG. 5A) (NF-κB; 1 hour pre-treatment, 2 μg/ml LPS 9 hours, coumestan 10 mg/ml) | Suppression of LPS-induced caspase-11 expression (caspase-11; 70 μg/ml, 6 hour pre-treatment, then LPS) | IC50 (caspase-11; BALB/c3T3, BalbC/3T3 cells, wedelolactone 1 hour, LPS additional 6 hours, read-out: IC50, inhibition of induction of caspase-11 by LPS) | Inhibition of LPS-induced activation of the NF-κB promoter (FIG. 28) (NF-κB; 0-100 μM 1 hour, 2 μg/ml LPS 6 hours, same concentration range as caspase-11 inhibition) | Inhibition of NF-κB transcriptional activity induced by LPS (NF-κB; 60 and 100 μM) | Reduction of NF-κB p105 mRNA expression, ratio (NF-κB p105 mRNA) | STAT1 expression level, % of control cells treated with LPS only (STAT1) | STAT3 expression level, % of control cells treated with LPS only (STAT3) |
| --- | --- | --- | --- | --- | --- | --- | --- | --- | --- |
| O=c1oc2ccccc2c2oc3cc(O)c(O)cc3c12 [11,12-dihydroxy coumestan, reference compound] | does not inhibit caspase-11 expression | did not inhibit NF-κB induction | – | – | – | – | – | – | – |
| COc1cc(O)c2c(c1)oc(=O)c1c3cc(O)c(O)cc3oc21 [wedelolactone] | – | – | suppressed caspase-11 expression | ~50 µM | inhibited the activation of the NF-κB promoter | inhibited the NF-κB transcriptional activity | 1 to 8 | 4% | 30% |

From patent US6552071B2, “Methods for treating cell death diseases and inflammation” (President and Fellows of Harvard College, priority 1999, dated 2003)
